Numbered stars: 1 amine (or outer) side, 2 acyl side, 3 side chain; on linkers, the order of the positions; unused ones are H or OH. Square brackets hold non-standard residues; d marks the D form. Peptide text beside a SMILES is read from it. * marks the point of attachment. ξ: configuration not given here. X1 = CCC(=O)C[C@H](O)C[C@@H](C)C[C@H](N[*:1])C(=O)[*:2]; Nva(5-pentanoyl) = CCCCC(=O)CCC[C@H](N)C(=O)O; NH((S)CH(Me)CH2NHC2H4OH) = C[C@@H](CNCCO)N*; Gly(octyl) = CCCCCCCC[C@H](N)C(=O)O; X2 = O=C([C@H](CCCCO)N[*:1])[*:2]; X3 = C[C@H](NC[C@H](C)N*)C(=O)O; Nle = CCCC[C@H](N)C(=O)O; Ac5c = NC1(C(=O)O)CCCC1; Ac3c = NC1(C(=O)O)CC1; Aib = CC(C)(N)C(=O)O; Butyryl = CCCC(=O)*; ξP = O=C(O)C1CCCN1; βAla = NCCC(=O)O
Tests used:
Type in all cases: functional, cell-based
SK-BR-3 = assay: Antiproliferative activity against human SKBR3 cells
NCI-H460 = assay: Antiproliferative activity against human NCI-H460 cells
T47D = assay: Antiproliferative activity against human T47D cells
MDA-MB-468 = assay: Antiproliferative activity against human MDA-MB-468 cells

SMILES | IC50 (SK-BR-3) [nM] | IC50 (NCI-H460) [nM] | IC50 (T47D) [nM] | IC50 (MDA-MB-468) [nM]
CCCCCCCC[C@H](NC(=O)C(C)(C)NC(=O)C(C)(C)NC(=O)[C@H](CCCCO)NC(=O)[C@@H]1CCCN1C(=O)CCC)C(=O)N[C@@H](CC(C)C)C(=O)NC(C)(C)C(=O)N[C@@H](CC(C)C)C(=O)NCCC(=O)N[C@@H](C)CNCCO (Butyryl-P[X2][Aib][Aib][Gly(octyl)]L[Aib]L[βAla]-{NH((S)CH(Me)CH2NHC2H4OH)}) | 270 | 45 | 49 | 39
CCCCCCCC[C@H](NC(=O)C(C)(C)NC(=O)[C@H](C)NC(=O)[C@H](CCCC(=O)CCCC)NC(=O)C1CCCN1C(=O)CCC)C(=O)N[C@@H](CC(C)C)C(=O)NC(C)(C)C(=O)N[C@@H](CC(C)C)C(=O)NCCC(=O)N[C@@H](C)CNCCO (stereo partly drawn) (Butyryl-[ξP][Nva(5-pentanoyl)]A[Aib][Gly(octyl)]L[Aib]L[βAla]-{NH((S)CH(Me)CH2NHC2H4OH)}) | 75 | 44 | 31 | 42
CCCCCCCC[C@H](NC(=O)[C@H](C)NC(=O)C(C)(C)NC(=O)[C@H](CCCC(=O)CCCC)NC(=O)C1CCCN1C(=O)CCC)C(=O)N[C@@H](CC(C)C)C(=O)NC(C)(C)C(=O)N[C@@H](CC(C)C)C(=O)NCCC(=O)N[C@@H](C)CNCCO (stereo partly drawn) (Butyryl-[ξP][Nva(5-pentanoyl)][Aib]A[Gly(octyl)]L[Aib]L[βAla]-{NH((S)CH(Me)CH2NHC2H4OH)}) | 24 | 20 | 27 | 21
CCCC(=O)N1CCC[C@H]1C(=O)N[C@@H](C[C@H](C)C[C@@H](O)CC(=O)CC)C(=O)NC(C)(C)C(=O)NC(C)(C)C(=O)N[C@@H](CC(C)C)C(=O)N[C@@H](CC(C)C)C(=O)NC(C)(C)C(=O)N[C@@H](CC(C)C)C(=O)NCCC(=O)N[C@@H](C)CNCCO (Butyryl-P[X1][Aib][Aib]LL[Aib]L[βAla]-{NH((S)CH(Me)CH2NHC2H4OH)}) | > 1000 | 496 | 130 | 90
CCCCCCCC[C@H](NC(=O)C(C)(C)NC(=O)C(C)(C)NC(=O)[C@H](CCCC(=O)CCCC)NC(=O)C1CCCN1C(=O)CCC)C(=O)N[C@@H](C)C(=O)NC(C)(C)C(=O)N[C@@H](CC(C)C)C(=O)NCCC(=O)N[C@@H](C)CNCCO (stereo partly drawn) (Butyryl-[ξP][Nva(5-pentanoyl)][Aib][Aib][Gly(octyl)]A[Aib]L[βAla]-{NH((S)CH(Me)CH2NHC2H4OH)}) | 130 | 103 | 51 | 66
CCCCCCCC[C@H](NC(=O)C(C)(C)NC(=O)C(C)(C)NC(=O)[C@H](Cc1c[nH]c2ccccc12)NC(=O)[C@@H]1CCCN1C(=O)CCC)C(=O)N[C@@H](CC(C)C)C(=O)NC(C)(C)C(=O)N[C@@H](CC(C)C)C(=O)NCCC(=O)N[C@@H](C)CNCCO (Butyryl-PW[Aib][Aib][Gly(octyl)]L[Aib]L[βAla]-{NH((S)CH(Me)CH2NHC2H4OH)}) | 60 | 23 | 15 | 21
CCCC(=O)N1CCC[C@H]1C(=O)N[C@@H](C[C@H](C)C[C@@H](O)CC(=O)CC)C(=O)NC(C)(C)C(=O)NC(C)(C)C(=O)N[C@@H](C)C(=O)N[C@@H](CC(C)C)C(=O)NC(C)(C)C(=O)N[C@@H](CC(C)C)C(=O)NCCC(=O)N[C@@H](C)CNCCO (Butyryl-P[X1][Aib][Aib]AL[Aib]L[βAla]-{NH((S)CH(Me)CH2NHC2H4OH)}) | > 30000 | > 10000 | > 1000 | > 1000
CCCCCCCC[C@H](NC(=O)C(C)(C)NC(=O)C(C)(C)NC(=O)C(C)(C)NC(=O)[C@@H]1CCCN1C(=O)CCC)C(=O)N[C@@H](CC(C)C)C(=O)NC(C)(C)C(=O)N[C@@H](CC(C)C)C(=O)NCCC(=O)N[C@@H](C)CNCCO (Butyryl-P[Aib][Aib][Aib][Gly(octyl)]L[Aib]L[βAla]-{NH((S)CH(Me)CH2NHC2H4OH)}) | 150 | 57 | 29 | 48
CCCCCCCC[C@H](NC(=O)C(C)(C)NC(=O)C(C)(C)NC(=O)[C@H](Cc1ccccc1)NC(=O)[C@@H]1CCCN1C(=O)CCC)C(=O)N[C@@H](CC(C)C)C(=O)NC(C)(C)C(=O)N[C@@H](CC(C)C)C(=O)NCCC(=O)N[C@@H](C)CNCCO (Butyryl-PF[Aib][Aib][Gly(octyl)]L[Aib]L[βAla]-{NH((S)CH(Me)CH2NHC2H4OH)}) | 25 | 6 | 8 | 7
CCCCCCCC[C@H](NC(=O)C(C)(C)NC(=O)C(C)(C)NC(=O)[C@H](CS)NC(=O)[C@@H]1CCCN1C(=O)CCC)C(=O)N[C@@H](CC(C)C)C(=O)NC(C)(C)C(=O)N[C@@H](CC(C)C)C(=O)NCCC(=O)N[C@@H](C)CNCCO (Butyryl-PC[Aib][Aib][Gly(octyl)]L[Aib]L[βAla]-{NH((S)CH(Me)CH2NHC2H4OH)}) | > 1000 | 249 | 166 | 262
CCCCCCCC[C@H](NC(=O)C(C)(C)NC(=O)C(C)(C)NC(=O)[C@H](CCCC(=O)CCCC)NC(=O)C1CCCN1C(=O)CCC)C(=O)N[C@@H](CC(C)C)C(=O)N[C@@H](C)C(=O)N[C@@H](C)C(=O)NCCC(=O)N[C@@H](C)CNCCO (stereo partly drawn) (Butyryl-[ξP][Nva(5-pentanoyl)][Aib][Aib][Gly(octyl)]LAA[βAla]-{NH((S)CH(Me)CH2NHC2H4OH)}) | > 1000 | 96 | 101 | 314
CCCCCCCC[C@H](NC(=O)C(C)(C)NC(=O)C(C)(C)NC(=O)[C@H](CCCC(=O)CCCC)NC(=O)C1CCCN1C(=O)CCC)C(=O)N[C@@H](CC(C)C)C(=O)NC(C)(C)C(=O)N[C@@H](CC(C)C)C(=O)NCCC(=O)N[C@@H](C)CN[C@@H](C)C(=O)O (stereo partly specified) (Butyryl-[ξP][Nva(5-pentanoyl)][Aib][Aib][Gly(octyl)]L[Aib]L[βAla]-X3) | > 1000 | 291 | > 500 | > 500
CCCC[C@H](NC(=O)C(C)(C)NC(=O)C(C)(C)NC(=O)[C@H](C[C@H](C)C[C@@H](O)CC(=O)CC)NC(=O)[C@@H]1CCCN1C(=O)CCC)C(=O)N[C@@H](CC(C)C)C(=O)NC(C)(C)C(=O)N[C@@H](CC(C)C)C(=O)NCCC(=O)N[C@@H](C)CNCCO (Butyryl-P[X1][Aib][Aib][Nle]L[Aib]L[βAla]-{NH((S)CH(Me)CH2NHC2H4OH)}) | > 1000 | > 500 | 124 | 90
CCCCCCCC[C@H](NC(=O)C(C)(C)NC(=O)C(C)(C)NC(=O)[C@H](Cc1c[nH]cn1)NC(=O)[C@@H]1CCCN1C(=O)CCC)C(=O)N[C@@H](CC(C)C)C(=O)NC(C)(C)C(=O)N[C@@H](CC(C)C)C(=O)NCCC(=O)N[C@@H](C)CNCCO (Butyryl-PH[Aib][Aib][Gly(octyl)]L[Aib]L[βAla]-{NH((S)CH(Me)CH2NHC2H4OH)}) | > 1000 | 456 | 151 | 136
CCCCC(=O)CCC[C@H](NC(=O)C1CCCN1C(=O)CCC)C(=O)NC(C)(C)C(=O)NC(C)(C)C(=O)N[C@@H](C)C(=O)N[C@@H](CC(C)C)C(=O)NC(C)(C)C(=O)N[C@@H](CC(C)C)C(=O)NCCC(=O)N[C@@H](C)CNCCO (stereo partly drawn) (Butyryl-[ξP][Nva(5-pentanoyl)][Aib][Aib]AL[Aib]L[βAla]-{NH((S)CH(Me)CH2NHC2H4OH)}) | > 1000 | > 1000 | > 1000 | > 1000
CCCCCCCC[C@H](NC(=O)C(C)(C)NC(=O)C(C)(C)NC(=O)[C@H](CCC(=O)O)NC(=O)[C@@H]1CCCN1C(=O)CCC)C(=O)N[C@@H](CC(C)C)C(=O)NC(C)(C)C(=O)N[C@@H](CC(C)C)C(=O)NCCC(=O)N[C@@H](C)CNCCO (Butyryl-PE[Aib][Aib][Gly(octyl)]L[Aib]L[βAla]-{NH((S)CH(Me)CH2NHC2H4OH)}) | > 10000 | > 10000 | > 10000 | > 10000
CCCCCCCC[C@H](NC(=O)C(C)(C)NC(=O)C(C)(C)NC(=O)CNC(=O)[C@@H]1CCCN1C(=O)CCC)C(=O)N[C@@H](CC(C)C)C(=O)NC(C)(C)C(=O)N[C@@H](CC(C)C)C(=O)NCCC(=O)N[C@@H](C)CNCCO (Butyryl-PG[Aib][Aib][Gly(octyl)]L[Aib]L[βAla]-{NH((S)CH(Me)CH2NHC2H4OH)}) | 310 | 133 | 87 | 76
CCCCCCCC[C@H](NC(=O)C(C)(C)NC(=O)C(C)(C)NC(=O)C1(NC(=O)[C@@H]2CCCN2C(=O)CCC)CCCC1)C(=O)N[C@@H](CC(C)C)C(=O)NC(C)(C)C(=O)N[C@@H](CC(C)C)C(=O)NCCC(=O)N[C@@H](C)CNCCO (Butyryl-P[Ac5c][Aib][Aib][Gly(octyl)]L[Aib]L[βAla]-{NH((S)CH(Me)CH2NHC2H4OH)}) | 118 | 36 | 29 | 29
CCCCCCCC[C@H](NC(=O)C(C)(C)NC(=O)C(C)(C)NC(=O)C1(NC(=O)[C@@H]2CCCN2C(=O)CCC)CC1)C(=O)N[C@@H](CC(C)C)C(=O)NC(C)(C)C(=O)N[C@@H](CC(C)C)C(=O)NCCC(=O)N[C@@H](C)CNCCO (Butyryl-P[Ac3c][Aib][Aib][Gly(octyl)]L[Aib]L[βAla]-{NH((S)CH(Me)CH2NHC2H4OH)}) | 236 | 87 | 57 | 64

Source: ChEMBL document CHEMBL4619722, “Alanine scan-guided synthesis and biological evaluation of analogues of culicinin D, a potent anticancer peptaibol” (Bioorg Med Chem Lett, 2020)
